Assay results published in US9814720B2, “Compositions and methods of inhibiting IL-17 expression of neutrophils” (priority 2014, dated 2017).

Legend:
[1] = system: p-STAT3; experiment: Western blot of total cell lysate of IL-6/23-stimulated human neutrophils; format: cell-based; details: IL-6/23 1 h, FIG. 5A
Description: Neutrophils were isolated from peripheral blood of healthy donors. Peripheral blood was incubated in 3% Dextran, and neutrophils isolated by Ficoll gradient centrifugation (Fisher Scientific), with neutrophil purity determined by staining with Wright-Giemsa.
(§1) Murine or human neutrophils were suspended at a density of 10^6 cells/ml and incubated with […] of recombinant mouse or human IL-6 and 2 μg/ml IL-23 in RPMI, and the cells were maintained for 1-3 h at 37° C. in 5% CO2. Various inhibitors were used for assessing STAT3 activation. For STAT3, neutrophils were treated with either the STAT3-SH2 inhibitor, Stattic (20 μM) obtained from Tocris, or the JAK-1, 2 inhibitor, INC424, (aka Ruxolitinib; 20 μM (Selleck BioChem)). For the determination of RORγt-dependent signaling, SR1001 (20 μM; Sigma) was used, which inhibits RORγt binding to the IL-17 promoter site. All inhibitors were added to neutrophils 2 h prior to recombinant IL-6 and IL-23 stimulation.
Neutrophils collected from primed or naïve C57BL/6 mice or unstimulated murine or human neutrophils were incubated with recombinant IL-6 and IL-23 for 60 min. After this time, cells were washed in PBS and lysed in ice-cold 1× lysis buffer (Cell Signaling Technology, Beverly, Mass.). Total protein was quantified using the BCA method, denatured with 2× Laemmli buffer (Sigma) and heated to 95° C. for 5 minutes. Nuclear extracts of the cells were prepared with the Pierce nuclear extract kit per the manufacturer's directions (Pierce). Ten μg of total protein was analyzed on a 12% SDS polyacrylamide gel, and transferred to nitrocellulose. Blots were probed with the following primary antibodies: Total STAT3 (R&D), p-STAT3 (R&D), RORγt (eBioscience), TATA box binding protein (TBP (Abcam)), and β-actin (Cell Signaling Technology). HRP-conjugated secondary antibodies were used (Santa Cruz Biotechnologies), and western blots developed with Supersignal West Femto Maximum Sensitivity Substrate (Pierce).

[2] = system: IL-17RC; experiment: IL-17RC gene expression by qPCR in IL-6/23-stimulated murine neutrophils; format: cell-based; details: IL-6/23 1 h, FIG. 6A
Excerpt: Total bone marrow-derived cells were isolated from mouse femurs and tibias by flushing with RPMI and an 18-gauge needle. Erythrocytes were lysed with 1× lysis buffer (eBioscience), and bone marrow cells were separated on a Percoll (Fisher) gradient by density centrifugation (52%, 69%, and 78%). Cells at the 69-78% interface were harvested, and neutrophil purity (>98%) confirmed by flow cytometry and Wright-Giemsa staining.
as §1
Neutrophil and corneal cell RNA was extracted using the RNeasy mini kit according to the manufacturer's directions (Qiagen, Valencia, Calif.). The quality of RNA was checked by spectrophotometry, and only samples with a 260/280 ratio of 2.0 were used to generate cDNA. The SuperScript First Strand synthesis system (Invitrogen) was used to generate cDNA according to the manufacturer's directions.
The SYBR green system (Applied Biosystems, Carlsbad, Calif.) was utilized for quantitative PCR (qPCR) using ABI Biosystems. PCR products were then run on a 1% agarose gel, and visualized using ethidium bromide. PCR products were compared to Actb (encoding the β-actin gene) or GAPDH as the controls for gel loading.

[3] = system: human peripheral blood neutrophils; experiment: ROS production (CFDA) by human peripheral blood neutrophils incubated with Aspergillus hyphae; format: cell-based; details: IL-6/23-stimulated, inhibitor 20 μM, FIG. 6E
Description: (§2) Murine and human neutrophils were incubated with p-STAT3 (20 μM Stattic or 20 μM INC424) or RORγt inhibitors (20 μM SR1001) for 2 h. Then the cells were stimulated with […] of rIL-6 and 2 μg/ml of rIL-23 for 3 h, washed, and 2×10^5 bone marrow-derived murine neutrophils or 10^5 human peripheral blood neutrophils, with or without recombinant IL-17A, were added to each well with growing hyphae. RPMI media was used as positive control (unimpaired growth), and PBS was used as a negative control (no growth (data not shown)). After 16 h the wells were washed with PBS and the dsRed fungal mass was quantified in a 96-well fluorometer at 550/600 nm excitation/emission filter (Synergy HT, Biotek).
In vitro ROS production measured by CFDA was previously described. Briefly, 100 μg/100 μl of A. fumigatus hyphal extract (AspHE) were incubated with 2×10^5 murine or human neutrophils. Neutrophils were treated for 1 h with 1 μM Carboxyfluorescein diacetate (H2CFDA (Sigma)), which will fluoresce following ROS oxidation. Neutrophils were collected and analyzed by flow cytometry. H2CFDA pulsed neutrophils that had not been incubated with AspHE were used to set the ROS histogram gate. The average mean intensity was calculated by Accuri flow software and graphed in Prism.

[4] = system: A. fumigatus hyphae; experiment: In vitro fungal killing assay (hyphal coincubation) with murine neutrophils; format: cell-based, Aspergillus fumigatus; details: IL-6/23-stimulated, inhibitor 20 μM, FIG. 6D
Excerpt: Aspergillus strains—For cornea infections and in vitro fungal killing assays, an RFP expressing strain of A. fumigatus (Af-dsRed) was used. This strain is gpdA promoter driven to constitutively express monomeric dsRed. For subcutaneous “priming” injections, heat-killed, swollen conidia Aspergillus fumigatus strain Af-BP was used. For the Aspergillus hyphal extract used in ROS assay, A. fumigatus strain Af-BP hyphae were pulverized in liquid nitrogen, filtered through a 30 μm pre-separation filter (Miltenyi Biotec) and protein measured by the BCA method (Pierce). Aspergillus hyphal extracts (AspHE) were stored at −20° C. and used at a final concentration of 1 mg/ml.
A hyphal coincubation assay was used to study the ability of murine and human neutrophils to inhibit A. fumigatus hyphal growth as described. Briefly, 12,500 A. fumigatus dsRed expressing conidia (strain Af-dsRed) per 200 μl Sabouraud dextrose media were added to wells of black-walled 96 well plates with an optically clear bottom (CoStar 3720). After 6 h, the conidia had germinated and the hyphae became adherent to the wells, at which time the medium was removed.
as §2

Compound: O=[N+]([O-])c1ccc2c(c1)S(=O)(=O)C=C2 [Stattic]
- RORγt expression (western blot) [1]: not altered
- total STAT3 expression (western blot) [1]: not altered
- p-STAT3 (western blot) ([1]; inhibitor 20 μM): inhibited
- IL-17RC expression [2]: did not inhibit
- ROS production ([3]; plus rhIL-17A): increased ROS
- ROS production ([3]; without rhIL-17A): no increase in ROS
- hyphal killing activity ([4]; plus rIL-17A): enhanced hyphal killing activity was detected
- hyphal growth (fluorescent fungal mass) ([4]; without rIL-17A): did not further impede hyphal growth
